# The source made the active and inactive calls. No rule for the calls is given here.
# Molecular target: Ras-related C3 botulinum toxin substrate 1 (Homo sapiens) (UniProt P63000)
# Experiment: wildtype Rac1 GTP binding inhibitors, SAR follow-up, biochemical, additional analogs, multiplex bead flow cytometry (AID 2040)
# Settings: for Ki: measured here: Ki derived from EC50
Structure (SMILES),EC50,Ki [µM]
O=Nc1c(-c2c(O)[nH]c3ccc(Br)cc23)[nH]c2ccccc12,> 30 µM (inactive),
O=Nc1c(-c2c(O)[nH]c3c(Br)cccc23)[nH]c2ccccc12,> 30 µM (inactive),
O=C1C(c2c(O)[nH]c3c(F)cccc23)=Nc2ccccc21,inactive,3.23
O=Nc1c(-c2c(O)[nH]c3c(Cl)cccc23)[nH]c2ccccc12,> 30 µM (inactive),
O=C1C(c2c(O)[nH]c3c(Br)cccc23)=Nc2ccccc21,> 30 µM (inactive),
O=C1C(c2c(O)[nH]c3ccccc23)=Nc2ccccc21,> 30 µM (inactive),
O=C1Nc2cccc(Br)c2/C1=C1/Cc2ccccc2C1=O,,1.13
O=C1N=c2ccccc2=C1c1[nH]c(=O)[nH]c1O,inactive,0.25
O=Nc1c(-c2c(O)[nH]c3c(F)cccc23)[nH]c2ccccc12,> 30 µM (inactive),
O=C1N=c2ccccc2=C1c1[nH]c(=S)[nH]c1O,inactive,0.16
COc1ccc(S(=O)(=O)n2c(N)c(C#N)c(-c3cncc(Br)c3)c2C(=O)c2ccccc2)cc1,,0.92
O=C1C(c2c(O)[nH]c3c(Cl)cccc23)=Nc2ccccc21,> 30 µM (inactive),
COc1cc(-c2c(C#N)c(N)n(S(=O)(=O)c3c(C(C)C)cc(C(C)C)cc3C(C)C)c2C(=O)c2ccccc2)cc(OC)c1OC,,7.04
O=Nc1c(-c2c(O)[nH]c3ccccc23)[nH]c2ccccc12,> 30 µM (inactive),
O=C1C(c2c(O)[nH]c3ccc(Br)cc23)=Nc2ccccc21,inactive,1.51
CSc1ccc(/C=C2/C(C)=C(CC(=O)O)c3cc(F)ccc32)cc1,,5.11
